According to patent publication US9833454B2, “Difluoromethoxy compound with low bioactivation potential for the reduction of beta-amyloid production” (BRISTOL-MYERS SQUIBB COMPANY, priority 2014, dated 2017):
Like-named read-outs stand apart in the source and are kept apart here.

Experiments:
CYP2C8 = target: T1, CYP2C8 (Homo sapiens, UniProt P10632); test: Inhibition of CYP enzymes in human liver microsomes (HLM), CYP2C8; assay type: in vitro ADME
T1 sequence (P10632 1-490): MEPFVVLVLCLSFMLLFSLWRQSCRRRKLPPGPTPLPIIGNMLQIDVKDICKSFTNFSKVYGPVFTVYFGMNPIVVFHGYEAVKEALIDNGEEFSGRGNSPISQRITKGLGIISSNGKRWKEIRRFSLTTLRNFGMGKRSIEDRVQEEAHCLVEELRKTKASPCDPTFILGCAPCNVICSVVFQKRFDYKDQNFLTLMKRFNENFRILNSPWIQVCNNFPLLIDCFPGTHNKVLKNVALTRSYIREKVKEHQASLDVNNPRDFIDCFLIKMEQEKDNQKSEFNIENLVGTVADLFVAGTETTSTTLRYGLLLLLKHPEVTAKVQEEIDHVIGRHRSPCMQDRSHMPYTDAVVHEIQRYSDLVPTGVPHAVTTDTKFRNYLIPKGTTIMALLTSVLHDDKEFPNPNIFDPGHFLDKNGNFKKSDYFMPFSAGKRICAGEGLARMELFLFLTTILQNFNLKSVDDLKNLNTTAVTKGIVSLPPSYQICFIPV

[1] = In vitro metabolite elucidation in Aroclor-treated rat liver S9 (with NADPH and GSH); assay type: in vitro ADME
Protocol: The incubation mixtures (0.5 mL) contained N2-(3-(DIFLUOROMETHOXY)-4-(3-METHYL-1H-1,2,4-TRIAZOL-1-YL)PHENYL)-7-(4-FLUOROPHENYL)-N4,5,5-[…]-6,7-DIHYDRO-5H-CYCLOPENTA[D]PYRIMIDINE-2,4-DIAMINE (10 μM), liver S9 fractions from Aroclor 1254-treated rats (Molecular Toxicology, Boone, N.C.) (2 mg protein/mL), and glutathione (GSH, 5 mM) in a 100 mM potassium phosphate buffer (pH 7.4). The final concentration of acetonitrile in the S9 fraction incubations was 0.5% (v/v). The reactions were initiated by adding β-nicotinamide adenine dinucleotide 2′-phosphate reduced tetrasodium salt (NADPH, final concentration as 1 mM) and the incubations were carried out at 37° C. […] The filtrate was collected in a 96-well plate and evaporated to approximately 25% of the original volume under nitrogen gas, and the remaining aqueous phase was analyzed using high-performance liquid chromatography with ultraviolet (UV) spectroscopic and mass spectrometric detection (LC-UV/MS) under the conditions described in Section 1.2.
Bioanalytical methods were as follows: The LC-UV/MS system consisted of a Waters Acquity binary solvent manager, a sample manager, a photodiode array (PDA) detector, and a Xevo Q-TOF mass spectrometer (Waters Corporation, Milford, Mass.). […] Column effluent was analyzed in-line using a PDA detector followed by the mass spectrometer. […]

[2] = target: 43 receptor and Enzyme panel (all others); test: In vitro safety: 43 receptor and enzyme panel, all others; conditions: targets other than A2A, DAT, D1, MAO A, read-out: 43 receptor and Enzyme IC50s, all others
Protocol: A range of off-target receptor binding assays and enzyme assays were carried out using conventional methods available in the art.

With `CNc1nc(Nc2ccc(-n3cnc(C)n3)c(OC(F)F)c2)nc2c1C(C)(C)CC2c1ccc(F)cc1` (single isomer, unassigned) [Enantiomer 1, N2-(3-(difluoromethoxy)-4-(3-methyl-1H-1,2,4-triazol-1-yl)phenyl)-7-(4-fluorophenyl)-N4,5,5-trimethyl-6,7-dihydro-5H-cyclopenta[d]pyrimidine-2,4-diamine] the IC50 (CYP2C8; HLM, 0 min preincubation, read-out: IC50-0 min 2C8) was 4.2 µM, the “IC50 Ratio 2C8” value (CYP2C8; HLM, IC50 shift 0 vs 30 min preincubation (TDI ratio)) was 1.9 and the IC50 (CYP2C8; IC50-30 min 2C8, HLM, 30 min preincubation with NADPH) was 2.2 µM. The “Estimated Percent (%) of The Original Parent Level (P) Based on UV Peak Areas” value ([1]; 10 μM, 30-minute incubation with NADPH and GSH, UV 300 nm) was 76%, the “GSH Adducts” value ([1]; NADPH and GSH) was “No GSH conjugates were detected” and the IC50 [2] was greater than 10 µM.
